The test system of assay [1] is NCI-H460/R. The assay can be described thus: SRB cell growth inhibition assay. The assay is classed as cell-based, human. How it is done:
Two distinct pairs of counterpart drug-sensitive and MDR human tumor cell lines were used, namely the non-small lung cancer (NSCLC) NCI-H460 (same cell line as in the NCI screen) and its MDR counterpart cell line NCI-[…] and the colorectal cancer DLD1 and its MDR counterpart cell line DLD1-TxR (Table 3). The screening was performed using the SRB assay, and the GI50 for each compound was determined by interpolation on the attained concentration-response curves and compared with NCI60 screening data (SI, Figures S62-S63; Table S21). Two pairs of drug-sensitive and multidrug-resistant (MDR) cell lines from human nonsmall cell lung cancer (NSCLC), NCI-H460 and NCI-[…], and colorectal cancer, DLD1 and DLD1-TxR, kindly provided by Dr M. […] The A549 cell line was maintained in Dulbecco's Modified Eagle Medium (DMEM) supplemented with 4.5 g/L Glucose with UltraGlutamine with sodium pyruvate (Lonza, Basel Stücki, Switzerland), enriched with 10% fetal bovine serum (FBS; Biowest, Nuaillé, France). […] For the sulforhodamine B (SRB) and 3D cell culture assays, the media were supplemented with 5% FBS. The remaining experiments were performed with medium supplemented with 10% FBS. […] The SRB assay was performed as previously described.[78],[79] Briefly, after fixing cells with 10% (w/v) ice-cold trichloroacetic acid (Merck Life Science), the proteins were stained with 0.4% of SRB (Merck Life Science) in acetic acid (Merck Life Science). Following washing steps in acetic acid, the bound dye was solubilized with 10 mM Tris base solution (Merck Life Science). Absorbance was measured at 510 nm in a multiplate reader (Synergy Mx, Biotek Instruments Inc., Winooski, Vermont, USA) using the Gen5 software (Biotek Instruments Inc.).

The subject of assay [2] is NCI60 tumor cell line panel. Also noted: method as in PMID 31894828. To be noted: against 53 human tumor cell lines; cited from earlier work.
Assay [3] relates to NCI-ADR/RES. Also noted: method as in PMID 31894828. To be noted: MDR cell line, high P-gp; read-out: growth inhibition (GI50) NCI/ADR-RES; cited from earlier work.
The test system of assay [4] is DLD1-TxR. The assay can be described thus: SRB cell growth inhibition assay. The assay is classed as cell-based, human. How it is done:
(§1) Two distinct pairs of counterpart drug-sensitive and MDR human tumor cell lines were used, namely the non-small lung cancer (NSCLC) NCI-H460 (same cell line as in the NCI screen) and its MDR counterpart cell line NCI-H460/R and the colorectal cancer DLD1 and its MDR counterpart cell line DLD1-TxR (Table 3). The screening was performed using the SRB assay, and the GI50 for each compound was determined by interpolation on the attained concentration−response curves and compared with NCI60 screening data (SI, Figures S62−S63; Table S21).
(§2) Two pairs of drug-sensitive and multidrug-resistant (MDR) cell lines from human nonsmall cell lung cancer (NSCLC), NCI-H460 and NCI-H460/R, and colorectal cancer, DLD1 and DLD1-TxR, kindly provided by Dr M. Pešić (Belgrade, Serbia), were used to evaluate the growth inhibition potential of the compounds 1, 2, 3, 4, 5, 20, 23, 24, an 25.[76],[77] Additionally, growth inhibition assays were performed with compound 25 on two other NSCLC cell lines, A549 and NCI-H322, obtained from the American Type Culture Collection (ATCC) and the European Collection of Authenticated Cell Cultures, respectively. The A549 cell line was maintained in Dulbecco’s Modified Eagle Medium (DMEM) supplemented with 4.5 g/L Glucose with UltraGlutamine with sodium pyruvate (Lonza, Basel Stücki, Switzerland), enriched with 10% fetal bovine serum (FBS; Biowest, Nuaillé, France). The lung fibroblast MRC-5 cell line and the remaining NSCLC and colorectal cancer cell lines were cultured in Roswell Park Memorial Institute (RPMI) 1640 (with stable glutamine and 25 mM HEPES) medium (Biowest), supplemented with 10% fetal bovine serum. […] For the sulforhodamine B (SRB) and 3D cell culture assays, the media were supplemented with 5% FBS. The remaining experiments were performed with medium supplemented with 10% FBS.
(§3) Cells were seeded at a previously determined optimal cell concentration (5.0 × 10^4 cells/mL for NSCLC cells and the nontumorigenic MRC-5 cell line and 1.0 × 10^5 cells/mL for colorectal cancer cells) and incubated at 37 °C for 24 h. […] The SRB assay was performed as previously described.[78],[79] Briefly, after fixing cells with 10% (w/v) ice-cold trichloroacetic acid (Merck Life Science), the proteins were stained with 0.4% of SRB (Merck Life Science) in acetic acid (Merck Life Science). Following washing steps in acetic acid, the bound dye was solubilized with 10 mM Tris base solution (Merck Life Science). Absorbance was measured at 510 nm in a multiplate reader (Synergy Mx, Biotek Instruments Inc., Winooski, Vermont, USA) using the Gen5 software (Biotek Instruments Inc.).

Assay [5] relates to NCI-H460. As to the kind of experiment: NCI60 five-dose GI50 (NCI data). The assay is classed as cell-based. To be noted: Homo sapiens, NCI data provided for comparison, read-out: NSCLC NCI-H460 GI50 (NCI). An excerpt: The concentration−response curve generated enables the determination of three criteria, GI50 (drug concentration at which 50% of cell growth is inhibited), total growth inhibition (TGI) and LC50 (drug concentration at which 50% of tumor cells are killed) which can be used to compare effectiveness against any compound tested in the screen since its inception.
S2.1 NCI Screening Assay Experimental details
NCI Screening Assay Experimental: Cancer cell growth assays (NCI60 screening) 5,6 One-dose study: Tested compounds were initially solubilised in DMSO, diluted into RPMI 1640 and 5% fetal bovine serum/L-glutamine, and added to 96-well plates containing cell lines previously cultured for 24 h. After 48 h incubation, the media were removed, and the cells were fixed and stained with sulforhodamine B to determine overall percent growth/ total protein content. Unbound dye was removed with five washes of 1% acetic acid, and the plates were allowed to air dry. The dye was then resolubilised in Tris buffer, and the colorimetric absorbance was measured (515 nm). Growth inhibition was measured relative to the response generated from proliferating cells cultured under identical conditions for 48 h. Data from one-dose experiments pertains to the percentage growth at […]
Five-dose study: Serial 5 × 10-fold dilution from an initial DMSO stock solution was performed, prior to incubation at each individual concentration (10 nM, 100 nM, 1 μM, 10 μM and 100 μM). Using seven absorbance measurements (time zero (Tz), control growth (C), and test growth in the presence of drug at the five concentration levels (Ti)), the percentage growth was calculated at each of the drug concentrations levels. Percentage growth inhibition was calculated as: [(Ti − Tz)/(C − Tz)] × 100 for concentrations for which Ti ≥ Tz, [(Ti − Tz)/Tz] × 100 for concentrations for which Ti < Tz. Three dose response parameters were calculated for each experimental agent. […]
was calculated from [(Ti − Tz)/(C − Tz)] × 100 = 50, which is the drug concentration resulting in a 50% reduction in the net protein increase (as measured by sulforhodamine B staining) in control cells during the drug incubation. The drug concentration resulting in total growth inhibition (TGI) was calculated from Ti = Tz. The LC50 (concentration of drug resulting in a 50% reduction in the measured protein at the end of the drug treatment as compared to that at the beginning) indicating a net loss of cells following treatment was calculated from [(Ti − Tz)/Tz] × 100 = −50. Values were calculated for each of these three parameters if the level of activity was reached; however, if the effect was not reached or was exceeded, the value for that parameter was expressed as greater or less than the maximum or minimum concentration tested.

Assay [6] concerns NCI-H460. The assay can be described thus: SRB cell growth inhibition assay. The assay is classed as cell-based. To be noted: Homo sapiens, 48 h, NSCLC sensitive, mean ± SEM.
Text: as §1, with “Taking into consideration the promising results of preliminary NCI screening, nine compounds (1, 2, 3, 4, 5, 20, 23, 24, 25) were selected for further screening in two counterpart pairs of sensitive and MDR cell lines. […] Two” for “Two”
as §2, §3

Assay [7] concerns DLD1. As to the kind of experiment: SRB cell growth inhibition assay. The assay is classed as cell-based. To be noted: Homo sapiens, DLD-1, 48 h, colorectal cancer sensitive, mean ± SEM.
Text: as §1, with “Taking into consideration the promising results of preliminary NCI screening, nine compounds (1, 2, 3, 4, 5, 20, 23, 24, 25) were selected for further screening in two counterpart pairs of sensitive and MDR cell lines. […] Two” for “Two”
as §2, §3

Take `COC(=O)c1c2c(c(C)[n+]([O-])c1C)C(=O)C(NCc1ccccc1)=CC2=O` [Compound 1]: the “selectivity ratio NSCLC” value in assay [1] (GI50 sensitive NCI-H460 / GI50 MDR NCI-H460/R) came out at 1.3. The GI50 in assay [1] (Homo sapiens, NCI-H460, SRB assay, 48 h, NSCLC MDR, mean ± SEM) is 2290 ± 280 nM; in assay [2], 2520 nM; in assay [3], 2670 nM; in assay [4] (Homo sapiens, SRB assay, 48 h, colorectal cancer MDR, mean ± SEM), 2970 ± 130 nM; in assay [5], 2720 nM; in assay [6] it was 3060 ± 150 nM. The GI50 in assay [7] was found to be 4890 ± 510 nM. Besides, the “selectivity ratio colorectal cancer” value in assay [4] (GI50 sensitive DLD1 / GI50 MDR DLD1-TxR) is on record as 1.7.

Source of the values: publication PMC11345829, “Discovery of Potent Isoquinolinequinone N-Oxides to Overcome Cancer Multidrug Resistance” (Journal of Medicinal Chemistry, 2024).
